Measurements taken from patent publication US5948931A (priority 1997, dated 1999).
Where a name gives a salt, the structure may show the parent alone. Read-outs that look alike come from different tables or passages of the source.

Columns and labels:
[1] = about pH 5-8, preferably about pH 6-7
[2] = Stability / hydrolysis-fragmentation of E-16 (anilinium salt E-19) in water; assay type: physicochemical; conditions: for half-life: read-out: t1/2 of decomposition in H2O (converted)
Protocol: Stability of E-19. These experiments were carried out in 5 mm glass NMR tubes at 22° C., concentration of E-4 0.1% (w/v).

[3] = Kinetic measurements of hydrolysis (release of p-nitrophenoxide), effect of Mg2+; assay type: physicochemical; conditions: for enhancement of hydrolysis rate by MgCl2 (factor): 0.2 M MgCl2, pH 8.5, 25° C.
Description: Kinetic Measurements of the Hydrolysis of E-19.

[4] = Kinetics of hydrolysis of PNHDA, dependence on pH and Ni2+; assay type: physicochemical; design: K / K': unit not given here
Protocol: The rates of hydrolysis of p-nitrophenyl(hydroxyimino)-(dihydroxyphosphinyl)acetate (16) were determined with Shimadzu UV-260 spectrophotometer by monitoring appearance of thep-nitrophenol at 400 nm (pH 6-11) and 317 nm (pH 4-5) and disappearance of reactant (16) at 217 nm (pH 4-5). The product spectra were quantitatively identified with those of equivalent concentration of p-nitrophenol under the same conditions. Reaction mixture pH values were measured. at 25 and 50° C. with a Beckman Model 71 pH meter. For non-metal ion-assisted reactions, a few buffer solutions were prepared with EDTA (2×10^-5) as a precaution against trace metal ions in the buffer and salts, but the same results were obtained as with the non-EDTA-containing buffers. Buffers employed were acetate (pH 4.2-5.3), N-ethyl morpholine (pH 6.7-7.8), and borate (pH 8-11). The buffer concentrations were 0.02-0.01 M (no significant catalytic effect). The ionic strength was 0.5-1.0 M, maintained with NaCl.
To initiate a kinetic run, 50-100 μl of 19 stock solution (0.002 M in H2 O) was injected into 2-3 ml of reactant solution maintained at the desired temperature. The reactions followed pseudo-first-order kinetics for at least 3 half-lives. Kinetic parameters were calculated with a linear least-squares computer program.

[5] = Stability of DCHA+ salts 3 heated in different solvents (31P NMR); assay type: physicochemical; conditions: conditions similar to refluxing AN
Protocol: Stability of DCHA^+ Salts 3 Heated in Different Solvents. 40 mg 3 (E or Z) was heated in 5 ml of alcohol mixture, H2 O or acetonitrile. Reaction progress was monitored by ^31 P NMR spectroscopy.

SMILES: O=C(O)/C(=N\O)P(=O)(O)O [E-7, α-(hydroxyimino)phosphonoacetic acid]
- phosphorylating activity [1]: active phosphorylating agent

SMILES: COP(=O)(O)/C(=N/O)C(=O)O [E-8, (E)-(hydroxyimino)(hydroxymethoxyphosphinyl)acetic acid]
- stability in water (about pH 7, about 24 hours, room temperature): stable
- methyl phosphate formed (pH 1.5): 15%
- methyl phosphorocyanidate formed (pH 1.5): 85%
- rate of E-8→Z-8→15 relative to dissociative fragmentation (pH 1.5): about 6 ×
- decomposition (pH 1.5, over 2.5 hours): quantitatively decomposed
- reactivity (pH 7, 25° C.): unreactive

SMILES: O=C(Oc1ccc([N+](=O)[O-])cc1)/C(=N\O)P(=O)(O)O [E-16, p-nitrophenyl (E)-(dihydroxyphosphinyl)(hydroxyimino)acetate]
- phosphate among products ([2]; pH 6.5): 92%
- phosphorocyanidate among products ([2]; pH 6.5): 8%
- phosphate among products ([2]; pH 8.5): 80%
- phosphorocyanidate among products ([2]; pH 8.5): 20%
- phosphoric acid and methyl phosphate, total ([2]; pH 8.5, 1:1 water:methanol): 34%
- formation of phosphorocyanidate ([2]; pH 8.5, presence of Mg2+): not observed
- hydrolysis rate in words ([2]; pH 8.5, presence of Mg2+): faster
- phosphate among products ([2]; pH about 3, 52 hr): 100%
- degraded at 52 h ([2]; water, pH 3, pH about 3, 52 hr, read-out: decomposition in H2O): < 4%
- half-life ([2]; water, pH 6.5): ~30 h
- half-life ([2]; water, pH 8.5): ~1 h
- rate of release of p-nitrophenoxide vs. p-nitrophenyl acetate (times faster) ([3]; 0.2 M MgCl2): 40 ×
- enhancement of hydrolysis rate by MgCl2 (factor) [3]: 2.5 (±0.1)
- rate of release of p-nitrophenoxide vs. p-nitrophenyl acetate (times faster) ([3]; pH 8.5, 25° C., no Mg2+): 20 ×
- acceleration of p-nitrophenyl ester hydrolysis by (E)-oxime group ([3]; qualitative): several orders of magnitude
- enhancement of rate by Ni2+ (factor) ([4]; 0.01M Ni2+, pH 4.2): 3
- enhancement of Kobsd by Ni2+ (factor) ([4]; 0.01M Ni2+, pH 6.5): 28
- enhancement of Kobsd by Ni2+ (factor) ([4]; 0.01M Ni2+, pH 7.4): 20
- Ni2+ concentration with saturation effect on Kobsd ([4]; constant pH): 7 mM
- K ([4]; pH 4.2, Ni = 0.01M, 50° C.): 0.015
- log (k) ([4]; pH 4.2, Ni = 0.01M, 50° C.): -1.824
- K ([4]; pH 4.2, no metal ion, 50° C.): 0.0049
- log (k) ([4]; pH 4.2, no metal ion, 50° C.): -2.311
- K ([4]; pH 5.2, no metal ion, 50° C.): 0.0156
- K' ([4]; pH 5.2, no metal ion, 50° C.): 0.0165
- log (K') ([4]; pH 5.2, no metal ion, 50° C.): -1.78
- log (k) ([4]; pH 5.2, no metal ion, 50° C.): -1.807
- K ([4]; pH 6.5, Ni = 0.01M, 50° C.): 0.31
- log (k) ([4]; pH 6.5, Ni = 0.01M, 50° C.): -0.509
- K ([4]; pH 6.5, no metal ion, 50° C.): 0.011
- K' ([4]; pH 6.5, no metal ion, 50° C.): 0.009
- log (K') ([4]; pH 6.5, no metal ion, 50° C.): -2.05
- log (k) ([4]; pH 6.5, no metal ion, 50° C.): -1.959
- K ([4]; pH 7.4, Ni = 0.01M, 50° C.): 1.127
- K' ([4]; pH 7.4, Ni = 0.01M, 50° C.): 1.1
- log (K') ([4]; pH 7.4, Ni = 0.01M, 50° C.): 0.041
- log (k) ([4]; pH 7.4, Ni = 0.01M, 50° C.): 0.052
- K ([4]; pH 7.4, no metal ion, 50° C.): 0.0563
- K' ([4]; pH 7.4, no metal ion, 50° C.): 0.0605
- log (K') ([4]; pH 7.4, no metal ion, 50° C.): -1.22
- log (k) ([4]; pH 7.4, no metal ion, 50° C.): -1.249
- K ([4]; pH 8.5, no metal ion, 25° C.): 0.052
- K' ([4]; pH 8.5, no metal ion, 25° C.): 0.05635
- log (K') ([4]; pH 8.5, no metal ion, 25° C.): -1.249
- log (k) ([4]; pH 8.5, no metal ion, 25° C.): -1.288
- K ([4]; pH 9, no metal ion, 25° C.): 0.101
- K' ([4]; pH 9, no metal ion, 25° C.): 0.101
- log (K') ([4]; pH 9, no metal ion, 25° C.): -0.996
- log (k) ([4]; pH 9, no metal ion, 25° C.): -0.997
- K ([4]; pH 9.5, no metal ion, 25° C.): 0.33
- K' ([4]; pH 9.5, no metal ion, 25° C.): 0.33
- log (K') ([4]; pH 9.5, no metal ion, 25° C.): -0.481
- log (k) ([4]; pH 9.5, no metal ion, 25° C.): -0.481
- K ([4]; pH 10, no metal ion, 25° C.): 0.629
- K' ([4]; pH 10, no metal ion, 25° C.): 0.603
- log (K') ([4]; pH 10, no metal ion, 25° C.): -0.22
- log (k) ([4]; pH 10, no metal ion, 25° C.): -0.201
- K ([4]; pH 11, no metal ion, 25° C.): 1.2
- K' ([4]; pH 11, no metal ion, 25° C.): 1.249
- log (K') ([4]; pH 11, no metal ion, 25° C.): 0.0966
- log (k) ([4]; pH 11, no metal ion, 25° C.): 0.079
- hydroxide dependence of hydrolysis ([4]; pH<7): independent of hydroxide ion concentrations
- hydroxide dependence of hydrolysis ([4]; pH>8): hydroxide ion catalyzed
- slope of log Kobsd vs pH ([4]; pH>8): 0.8

SMILES: O=C(Oc1ccc([N+](=O)[O-])cc1)/C(=N\O)P(=O)(O)O [E-19, Anilinium Salt of p-Nitrophenyl (E)-(Hydroxyimino)(dihydroxyphophinyl)acetate]
- storage stability ([2]; anilinium salt, storage): stable to storage
- reaction order of hydrolysis ([3]; pH 8.5, 25° C.): pseudo-first order

SMILES: COP(=O)(O)C(=NO)c1ccccc1 [methyl α-(hydroxyimino)benzylphosphonate anion, reference compound]
- thermal stability [5]: thermally stable

SMILES: CC(=O)Oc1ccc([N+](=O)[O-])cc1 [p-nitrophenyl acetate, reference compound]
- enhancement of hydrolysis rate by MgCl2 (factor) [3]: not altered significantly
- reaction order of hydrolysis ([3]; pH 8.5, 25° C.): pseudo-first order
